Data published in patent publication US20090285836A1 (NEREUS PHARMACEUTICALS, INC., priority 2008, published 2009).
≈ marks a conversion by molar mass, not a printed value.

Key:
[1] = test system: Snail; test: Snail expression (RT-PCR, Western blot); conditions: DU-145, 5 or 10 μg/ml DHMEQ, 24 h, Western blot (FIG. 21D)
Experimental: (§4) DU-145 cells were treated with 5 or 10 μg/ml DHMEQ and protein lysates were harvested 24 h after treatment for RKIP and Snail protein determination by Western blot.

[2] = test system: YY1; test: YY1 promoter luciferase reporter and YY1 expression; assay type: cell-based; conditions: pYY1-luciferase reporter (FIG. 11A)
Text: TRAIL is produced by immune cells, and is a ligand for death receptors DR4, DR5, DcR1, and DcR2. […] Controls included untransfected (UNT) and DMSO. […] RKIP may have a direct role in the NPI-0052-induced sensitization to TRAIL. […] RKIP overexpression results in DR5 upregulation and cell sensitization to TRAIL-mediated apoptosis. YY1 acts as a suppressor of DR5 transcription and is positively regulated by NF-κB. […] Transfection controls include medium only and siRNA negative control. YY1 has a direct role in tumor sensitization to TRAIL apoptosis. […] Controls include transfected with the YY1-lucificerase reporter construct only, and cells treated with 10 μg/ml DHMEQ only. […] CMV-RKIP inhibited both mRNA transcription and protein expression of YY1. YY1 is inhibited by RKIP overexpression via NF-κB down-regulation.

[3] = test system: RKIP; test: RKIP expression (RT-PCR, Western blot); conditions: DU-145, 5 or 10 μg/ml DHMEQ, 24 h, Western blot (FIG. 21D)
Experimental: RKIP transcript levels were determined by RT-PCR for each time point tested (0-12 h). Normalized mRNA values were derived by dividing the mRNA value of each target gene with the corresponding quantity of GAPDH mRNA. Statistical analysis was performed using the Mann-Whitney U test. P values: treated vs untreated cells. The data represent the mean values±SEM from three independent experiments. […] Protein levels were also determined. Protein lysates were harvested at various time points and subjected to Western Blot analysis for RKIP protein. Actin was used as an internal control for loading. Blots are representative of three independent and reproducible experiments.
as §4

[4] = test system: MDA-MB-435 breast cancer; conditions: read-out: LC50; cited from earlier work
[5] = test system: National Cancer Institute's 60-cell-line panel; conditions: cited from earlier work
[6] = test system: SF-539 CNS cancer; conditions: read-out: LC50; cited from earlier work
[7] = test system: human colony-forming assays; conditions: single agent; cited from earlier work
[8] = test system: SK-MEL-28 melanoma; conditions: read-out: LC50; cited from earlier work
[9] = test system: DU-145 cells; test: drug titration, trypan blue exclusion assay; assay type: cell-based, human
[10] = test system: HCT-116 human colon carcinoma; conditions: cited from earlier work
[11] = single agent, mice models; cited from earlier work
[12] = test system: DU-145 cells; test: in vitro cell migration assay; assay type: cell-based, human; conditions: DU-145, 100 ng/ml TNF-α
Experimental: (§1) The functional significance of the NPI-0052-induced changes in the expression profiles of the above metastasis-related gene products was expected to be reflected in the migratory and invasive cell properties.
(§2) In vitro cell invasion and migration assays were performed using the 24/well BD Biocoat 3 micron migration chambers or 8 micron Matrigel invasion chambers (Becton Dickinson Labware, Bedford, Mass.), respectively, according to manufacturer's instructions. For both assays, cells were starved for 4-5 h prior to setting up the assay by adding basal medium supplemented with 0.1% BSA. RPMI 1640 medium containing 10% serum was used as chemoatractant. […] Data were expressed as the fold cell migration derived from the mean RFU of cell migration through the membrane towards FBS divided by the mean RFU of cell migration in the absence of FBS. […] Invaded cells through Matrigel were counted under the microscope at 40× magnification. Data were expressed as the percent invasion through the Matrigel Matrix and membrane relative to the migration through the control insert membrane.
(§3) For migratory assays, 10^5 cells were seeded in the upper chamber, while in the lower chamber RPMI 1640 containing 10% FBS was added. […] Only labeled cells that had migrated through the pores of the membrane were detected. […]

[13] = test system: DU-145 cells; test: in vitro Matrigel cell invasion assay; assay type: cell-based, human; conditions: DU-145, 100 ng/ml TNF-α
Experimental: as §1, §2, §3

O=C(NC1=CC(=O)[C@H]2O[C@H]2[C@H]1O)c1ccccc1O [DHMEQ]
Snail protein [1]: Snail suppression
YY1 promoter luciferase activity [2]: inhibited YY1 luciferase activity
RKIP protein [3]: RKIP induction

C[C@@]12OC(=O)[C@]1([C@@H](O)[C@@H]1C=CCCC1)NC(=O)[C@@H]2CCCl [NPI-0052, Salinosporamide A]
CC50 [4]: < 10 nM
LC50 differential between resistant and susceptible cell lines [5]: greater than 4 log
CC50 [6]: < 10 nM
toxicity in human colony-forming assays [7]: limited toxicity
CC50 [8]: < 10 nM
ID20 drug concentration (subtoxic concentration) [9]: 50 nM
IC50, in vitro cytotoxicity [10]: 0.011 µg/mL (≈ 0.0351 µM)
tolerance in vivo [11]: good tolerance

TNF-α
augmentation of migration compared to untreated cells [12]: ~10 fold
augmentation of invasion compared to untreated cells [13]: ~10 fold
